Data published in PubChem BioAssay (NCI).
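Dose response: 5 concentrations. Exposure: 48 h. Format: 96-well plates. Endpoint: linear interpolation; highest concentration if not reached. TGI: total growth inhibition.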

Columns and labels:
Assay in all cases: growth of human tumour cells (NCI), 48 h
786-0 renal = system: 786-0 renal
A498 renal = system: A498 renal
A549 NSCLC = system: A549 NSCLC
ACHN renal = system: ACHN renal
BT-549 breast = system: BT-549 breast
CAKI-1 renal = system: CAKI-1 renal
COLO 205 colon = system: COLO 205 colon
DU-145 prostate = system: DU-145 prostate
HCC-2998 colon = system: HCC-2998 colon
HCT-116 colon = system: HCT-116 colon
HCT-15 colon = system: HCT-15 colon
HL-60(TB) leukemia = system: HL-60(TB) leukemia
HOP-92 NSCLC = system: HOP-92 NSCLC
HS 578T breast = system: HS 578T breast
HT29 colon = system: HT29 colon
K-562 leukemia = system: K-562 leukemia
KM12 colon = system: KM12 colon
LOX IMVI melanoma = system: LOX IMVI melanoma
M14 melanoma = system: M14 melanoma
MCF7 breast = system: MCF7 breast
MDA-MB-231 breast = system: MDA-MB-231 breast
MDA-MB-435 = system: MDA-MB-435
MDA-N = system: MDA-N
MOLT-4 leukemia = system: MOLT-4 leukemia
NCI-H226 lung = system: NCI-H226 lung
NCI-H23 lung = system: NCI-H23 lung
NCI-H460 lung = system: NCI-H460 lung
NCI/ADR-RES ovarian = system: NCI/ADR-RES ovarian
OVCAR-3 ovarian = system: OVCAR-3 ovarian
OVCAR-4 ovarian = system: OVCAR-4 ovarian
OVCAR-5 ovarian = system: OVCAR-5 ovarian
OVCAR-8 ovarian = system: OVCAR-8 ovarian
PC-3 prostate = system: PC-3 prostate
RPMI-8226 leukemia = system: RPMI-8226 leukemia
RXF 393 renal = system: RXF 393 renal
SF-268 CNS = system: SF-268 CNS
SF-295 CNS = system: SF-295 CNS
SF-539 CNS = system: SF-539 CNS
SK-MEL-2 melanoma = system: SK-MEL-2 melanoma
SK-MEL-28 melanoma = system: SK-MEL-28 melanoma
SK-MEL-5 melanoma = system: SK-MEL-5 melanoma
SK-OV-3 ovarian = system: SK-OV-3 ovarian
SN12C renal = system: SN12C renal
SNB-19 CNS = system: SNB-19 CNS
SNB-75 CNS = system: SNB-75 CNS
SR leukemia = system: SR leukemia
SW-620 colon = system: SW-620 colon
T-47D breast = system: T-47D breast
U251 CNS = system: U251 CNS
UACC-257 melanoma = system: UACC-257 melanoma
UACC-62 melanoma = system: UACC-62 melanoma
UO-31 renal = system: UO-31 renal
CCRF-CEM leukemia = system: CCRF-CEM leukemia
EKVX NSCLC = system: EKVX NSCLC
HOP-62 NSCLC = system: HOP-62 NSCLC
IGROV1 ovarian = system: IGROV1 ovarian
MALME-3M melanoma = system: MALME-3M melanoma
NCI-H522 lung = system: NCI-H522 lung
TK-10 renal = system: TK-10 renal

Measured: TGI

COC(=O)C(=O)C(C(=O)C(=O)Nc1ccc([N+](=O)[O-])cc1[N+](=O)[O-])c1nc2ccc(Cl)cc2[nH]c1=O (configuration not stated)
90.8 µM: HS 578T breast
73.1 µM: SNB-75 CNS
not listed: CCRF-CEM leukemia | EKVX NSCLC | HOP-62 NSCLC | IGROV1 ovarian | MALME-3M melanoma | NCI-H522 lung | TK-10 renal
> 100 µM: all other assays above

COC(=O)/C=C/CC(=O)NS(C)(=O)=O
not listed: HOP-92 NSCLC | K-562 leukemia | SNB-75 CNS
> 10 µM: all other assays above

Cc1ccc(-c2nc3cc(N4CCN(C)CC4)c(F)cc3[nH]2)cc1
46 µM: HL-60(TB) leukemia
32.6 µM: NCI-H460 lung
50.7 µM: T-47D breast
31.2 µM: MALME-3M melanoma
34.5 µM: COLO 205 colon
31.9 µM: NCI-H522 lung
21 µM: HCT-15 colon
94.3 µM: LOX IMVI melanoma
39 µM: 786-0 renal
61.3 µM: SK-MEL-28 melanoma
91.4 µM: A498 renal
25.1 µM: SK-MEL-5 melanoma
75.5 µM: RPMI-8226 leukemia
31.3 µM: UACC-62 melanoma
24.6 µM: HCC-2998 colon
57.7 µM: SK-OV-3 ovarian
29.1 µM: HS 578T breast
27 µM: KM12 colon
34.3 µM: UACC-257 melanoma
58.9 µM: SNB-19 CNS
50 µM: HCT-116 colon
70.5 µM: ACHN renal
60.2 µM: OVCAR-5 ovarian
29.3 µM: HOP-62 NSCLC
55.8 µM: BT-549 breast
49 µM: A549 NSCLC
30.3 µM: MCF7 breast
95.7 µM: MDA-N
32 µM: SK-MEL-2 melanoma
38.4 µM: RXF 393 renal
90 µM: IGROV1 ovarian
30.4 µM: SF-295 CNS
48.1 µM: MDA-MB-435
27.4 µM: UO-31 renal
59.3 µM: OVCAR-4 ovarian
38.3 µM: NCI-H226 lung
43.6 µM: SF-268 CNS
31 µM: M14 melanoma
70 µM: EKVX NSCLC
not listed: HT29 colon | OVCAR-3 ovarian | OVCAR-8 ovarian | SF-539 CNS | SNB-75 CNS
> 100 µM: all other assays above
